The values that follow come from US20240024317A1, “CANCER TREATMENT USING BOSENTAN IN COMBINATION WITH A CHECKPOINT INHIBITOR” (Materia Therapeutics Inc., priority 2020, published 2024).

Format in all cases: in vivo, mice
The test system of experiment [1] is orthotopic 4T1 breast tumors. The experiment is described as follows: Pimonidazole hypoxia staining (hypoxic area fraction). Particulars: 1 mg/kg; 4T1 (FIG. 2B). As to the method:
Because reducing collagen I levels and tissue stiffness decompresses vessels, it was hypothesized that hypoxia, which is an indicator of decreased blood flow to the tumor, would be reduced with bosentan treatment. […] For the hypoxia studies, Mice bearing orthotopic E0771 or 4T1 breast tumors were injected (intraperitoneal) with 60 mg/kg of pimonidazole HCl at 2 hr prior to tumor removal. Prior to tumors excision, animals were anesthetized via Avertin (200 mg/kg, intraperitoneal). Primary tumors were then excised, fixed in 4% PFA, embedded in OCT and processed accordingly for IHC. Hypoxic regions were detected using the mouse anti-pimonidazole RED 549 conjugate antibody (HP7-100Kit, 1:100). Hypoxic area fraction across different treatment groups was normalized to DAPI staining. For fluorescent immunohistochemistry, tumors were removed, washed twice in 1× PBS for 10 min and incubated with 4% PFA overnight at 4° C. The fixative was aspirated, and samples washed twice in 1× PBS for 10 min. Fixed tissues were embedded in optimal cutting temperature compound in cryomolds (Tissue-Tek) and frozen completely at −20° C. […] CD31 signal was detected with Alexa Fluor-488 anti-rabbit IgG (H+L) and CD3 signal with Alexa Fluor-647 anti-rat IgG (H+L) secondary antibodies. Tumor associated T cell and vessel content was determined by the CD31 and CD3 area fraction normalized to DAPI staining. […]

In experiment [2] the test system is E0771 tumors. The experiment is described as follows: Atomic force microscopy (AFM) Young's modulus and stiffness fingerprint of excised tumors.
The subject of experiment [3] is E0771 tumors. Description: Extracellular matrix staining (Picro Sirius red collagen, HABP immunofluorescence). As to the method: Mice bearing syngeneic, orthotopic triple negative breast cancer (TNBC) were treated with a range of sub-therapeutic doses of bosentan, from 0.2 mg/kg to 10 mg/kg of body weight. Orthotopic models for murine mammary tumors were generated by implantation of 5×10^4 4T1 or E0771 cancer cells in 40 μl of serum-free medium into the third mammary fat pad of 6-8-week-old BALB/c and C57BL/6 female mice, respectively. 4T1 (ATCC® CRL-2539TH) and E0771 (94A001, CH3 BioSystems) mouse breast adenocarcinoma cell lines were purchased form ATCC and CH3 BioSystems, respectively. The cells were maintained at 37° C./5% CO2 in Roswell Park Memorial Institute medium (RPMI-1640, LM-R1637, Biosera) supplemented with 10% fetal bovine serum (FBS, FB-1001H, biosera) and 1% antibiotics (A5955, Sigma). Bosentan (bosentan Hydrate (S3051, Selleckchem) was dissolved in ddH2O containing 2% DMSO (GK2245, Glentham Life Science), 30% PEG300 (S6704, Selleckchem) and 2% Tween 80 (S6702, Selleckchem)) 1 mg/kg, 5 mg/kg, 10 mg/kg or equal volume of diluent (control group) was administered by intraperitoneal injection (i.p.) once a day for 10 days, starting from once the tumor volumes reached an average size of 100 mm^3. Tumors were excised when they reached an average size of 500 mm^3. Tissue stiffness was then measured non-invasively and longitudinally using ultrasound elastography. […]

With `COc1ccccc1Oc1c(NS(=O)(=O)c2ccc(C(C)(C)C)cc2)nc(-c2ncccn2)nc1OCCO` [bosentan, 4-tert-butyl-N-[6-(2-hydroxy-ethoxy)-5-(2-methoxy-phenoxy)-2-(pyrimidin-2-yl)pyrimidin-4-yl] benzenesulfonamide], in experiment [1], the “hypoxia (hypoxic area fraction)” value is given as “reduced hypoxia”. Moreover, in experiment [2] (1 mg/kg daily bosentan, excised E0771 tumors), the “tissue stiffness, Young's modulus by atomic force microscopy” value is recorded as “confirmed”. Moreover, the “mechanical fingerprint of the tissue (AFM stiffness histogram)” value was “large contribution from cancer cells and little contribution from collagen” in experiment [2] (tumors treated with 1 mg/kg); “heterogenous collagen contribution” in experiment [2] (tumors treated with 10 mg/kg). In experiment [3], the “collagen levels (Picro Sirius red staining)” value is “reduction of collagen levels”.
